Consider 1 compound from PMC5958115, “A novel small molecule chaperone of rod opsin and its potential therapy for retinal degeneration” (Nature Communications, 2018).

Series [1] in a line: Pharmacokinetics of YC-001 in mouse plasma. It counts as in vivo, C57BL/6 mice. The procedure:
C57BL/6J mice ranging from 8 to 12 weeks of age were purchased from Jackson Labs. For administration, YC-001 was dissolved in DMSO at 160 mg mL^−1. To obtain the blood clearance curve for YC-001, each animal was treated by i.p. injection of YC-001 at 200 mg kg^−1 bw. After administration, blood was collected at 5, 10, 15, 20, 30, 45, 60, and 90 min from the orbital sinus and dropped into K2EDTA blood collection tubes (FisherScientific). Mice were anesthetized with a ketamine/xylazine cocktail two min before blood collection. The blood samples were then incubated at 4 °C for 2 h before centrifugation at 1800×g for 20 min to collect the plasma in the supernatant. Plasma was mixed with twice the volume of methanol and then stored at −80 °C. YC-001 was extracted from the samples (300 to 600 μL) with 0.6 mL chloroform. The chloroform fraction was collected, dried, and the extracted organic compounds were dissolved in 0.25 mL of methanol. One hundred µL of each sample was injected onto an Eclipse XDB-C18 column (4.6 × 150 mm, 5 µm) and YC-001 was detected and quantified as described in the section Metabolic stability of YC-001.

The test system of series [2] is C57BL/6 mice. Kind of series: Retinoid cycle analysis: 11-cis-retinyl-oxime recovery after bleaching. It counts as in vivo, mouse. Conditions: 200 mg kg^−1 bw i.p. 30 min before 10,000 lux 10 min; vs DMSO. The procedure:
To test if treatment with YC-001 affects visual pigment regeneration, we quantified the 11-cis-retinyl-oxime extracted from retinas of C57BL/6 mice after different periods of dark adaptation following exposure to bright light. Mice at 6 weeks of age were administered YC-001 at 200 mg kg^−1 bw via i.p. injection. At 30 min following YC-001 administration, eyes were dilated with 1% tropicamide. Mice then were anesthetized with a cocktail containing 20 mg mL^−1 of ketamine and 1.75 mg mL^−1 of xylazine at a dose of 4 μL g^−1 bw. Anesthetized mice were exposed to bright light with an intensity of 10,000 lux for 10 min to bleach about 90% of the rhodopsin pigment. Mice then were returned to the dark for recovery. Animals then were euthanized at 0, 2, 4, 6 or 24 h after bleaching and recovery in the dark, and their eyes were removed and homogenized in 1 mL of 1:1 PBS:ethanol mixture (v/v) containing 40 mM hydroxylamine. […] 11-cis-Retinyl-oxime released from the regenerated rhodopsin pigments were separated on an Agilent Sil column (5 µm, 4.6 × 250 mm) with an isocratic flow of 10% ethyl acetate in hexanes (1.5 mL min^−1) and detected at 325 nm. Amounts of 11-cis-retinyl-oximes per eye were quantified by normalizing the peak area to an 11-cis-retinyl-oxime standard. 11-cis-Retinyl-oximes were quantified in three eye samples per condition, and the means and s.d.s were calculated.

Series [3] concerns S. typhimurium TA1535, TA97a, TA98, TA100 and E. coli WP2. Nature of the series: Micro Ames bacterial mutation test, five strains, with or without S9. The settings on record: 0.075-250 µg per well. The procedure: To determine the potential genotoxicity of YC-001, a Micro Ames test was performed by the Charles River Laboratories, Inc. The S9 microsomal fraction was obtained from Moltox Molecular Toxicology, Inc. (Boone, NC, USA). A premixture was prepared including 25 µL of S9 mix (10% v/v S9 fraction in 8 mM MgCl2, 33 mM KCl, 100 mM sodium phosphate buffer, pH 7.4, +S9) or phosphate buffer (0.2 M sodium phosphate, pH 7.4, no S9), 5 µL of bacterial culture (>1000 × 10^6 bacteria mL^−1) and 100 µL of molten top agar supplemented with 0.05 mM biotin and minimal histidine (0.05 mM) and minimal tryptophan (0.05 mM). The 24-well plates were prepared by adding 1.3 mL of minimal bottom agar (1.3% agar, Vogel-Bonner medium E and 0.25% glucose) to each well. A 10 µL aliquot of YC-001 working solution/negative/positive control was added to each well followed by addition of 130 µL of the premixture. The plates kept on a leveled surface for 1 h while the top agar solidified, then were incubated at 37 °C for 72 h. After this period, plates were stored at 4 °C before revertant colony counts were manually recorded using an inverted microscope. […]

As to `O=C1OCC(c2ccc(Cl)s2)=C1c1cccs1` [YC-001], the k el in series [1] (C57BL/6J, mouse, plasma, intraperitoneal, 200 mg kg^−1 bw, estimated from T1/2 and C0, read-out: elimination rate constant (Ke) (converted)) was 0.000335 s⁻¹. Moreover, the C0 in series [1] (C57BL/6J, mouse, plasma, ip, i.p. 200 mg kg^−1 bw, read-out: initial plasma concentration (C0)) worked out at 7280 ng/mL. The half-life in series [1] (C57BL/6J, mouse, plasma, ip, i.p. 200 mg kg^−1 bw, read-out: plasma half-life (T1/2)) is 34.5 min. In series [1] (estimated from T1/2 and C0), the clearance is listed as 0.552 L min^−1 kg^−1 bw and the “volume of distribution (Vd)” value is reported as 27.5 L kg^−1 bw. For the same compound, the “recovery of 11-cis-retinyl-oxime after bleaching” value in series [2] is “little difference”. Moreover, in series [3], the Ames test result is given as “negative”.
